According to ChEMBL document CHEMBL2040848, “Synthesis and bioactivity evaluation of rhodanine derivatives as potential anti-bacterial agents” (2012):
Values after ≈ are worked out from the molar mass of the structure shown.

System: Staphylococcus aureus
Test: Antibacterial activity against methicillin-resistant Staphylococcus aureus CCARM 3506 after 24 hrs by two-fold serial dilution method
Assay type: functional
Conditions: CCARM 3506, 24 h

| Compound | MIC |
| --- | --- |
| COc1ccccc1C(=O)COc1ccc(/C=C2\SC(=S)N([C@@H](Cc3ccc(O)cc3)C(=O)O)C2=O)cc1 | 8 µg/mL (≈ 14.6 µM) |
| O=C(COc1ccc(/C=C2\SC(=S)N([C@@H](Cc3c[nH]c4ccccc34)C(=O)O)C2=O)cc1)c1cccc(Br)c1 | 4 µg/mL (≈ 6.44 µM) |
| O=C(COc1ccc(/C=C2\SC(=S)N([C@@H](Cc3ccccc3)C(=O)O)C2=O)cc1)c1ccccc1 | 4 µg/mL (≈ 7.94 µM) |
| O=C(COc1ccc(/C=C2\SC(=S)N([C@@H](Cc3c[nH]c4ccccc34)C(=O)O)C2=O)cc1)c1ccccc1F | 8 µg/mL (≈ 14.3 µM) |
| O=C(COc1ccc(/C=C2\SC(=S)N([C@@H](Cc3ccccc3)C(=O)O)C2=O)cc1)c1cccc(Br)c1 | 4 µg/mL (≈ 6.87 µM) |
| O=C(COc1ccc(/C=C2\SC(=S)N([C@@H](Cc3ccc(O)cc3)C(=O)O)C2=O)cc1)c1ccccc1 | 32 µg/mL (≈ 61.6 µM) |

System: Staphylococcus aureus
Test: Antibacterial activity against Staphylococcus aureus KCTC 503 after 24 hrs by two-fold serial dilution method
Assay type: functional
Conditions: KCTC 503, 24 h

| Compound | MIC |
| --- | --- |
| COc1ccccc1C(=O)COc1ccc(/C=C2\SC(=S)N([C@@H](Cc3ccc(O)cc3)C(=O)O)C2=O)cc1 | 8 µg/mL (≈ 14.6 µM) |
| O=C(COc1ccc(/C=C2\SC(=S)N([C@@H](Cc3c[nH]c4ccccc34)C(=O)O)C2=O)cc1)c1cccc(Br)c1 | 4 µg/mL (≈ 6.44 µM) |
| O=C(COc1ccc(/C=C2\SC(=S)N([C@@H](Cc3ccccc3)C(=O)O)C2=O)cc1)c1ccccc1 | 8 µg/mL (≈ 15.9 µM) |
| O=C(COc1ccc(/C=C2\SC(=S)N([C@@H](Cc3c[nH]c4ccccc34)C(=O)O)C2=O)cc1)c1ccccc1F | 8 µg/mL (≈ 14.3 µM) |
| O=C(COc1ccc(/C=C2\SC(=S)N([C@@H](Cc3ccccc3)C(=O)O)C2=O)cc1)c1cccc(Br)c1 | 4 µg/mL (≈ 6.87 µM) |
| O=C(COc1ccc(/C=C2\SC(=S)N([C@@H](Cc3ccc(O)cc3)C(=O)O)C2=O)cc1)c1ccccc1 | 32 µg/mL (≈ 61.6 µM) |

System: Staphylococcus aureus
Test: Antibacterial activity against quinolone-resistant Staphylococcus aureus CCARM 3519 after 24 hrs by two-fold serial dilution method
Assay type: functional
Conditions: CCARM 3519, 24 h

| Compound | MIC |
| --- | --- |
| COc1ccccc1C(=O)COc1ccc(/C=C2\SC(=S)N([C@@H](Cc3ccc(O)cc3)C(=O)O)C2=O)cc1 | 8 µg/mL (≈ 14.6 µM) |
| O=C(COc1ccc(/C=C2\SC(=S)N([C@@H](Cc3c[nH]c4ccccc34)C(=O)O)C2=O)cc1)c1cccc(Br)c1 | 4 µg/mL (≈ 6.44 µM) |
| O=C(COc1ccc(/C=C2\SC(=S)N([C@@H](Cc3ccccc3)C(=O)O)C2=O)cc1)c1ccccc1 | 4 µg/mL (≈ 7.94 µM) |
| O=C(COc1ccc(/C=C2\SC(=S)N([C@@H](Cc3c[nH]c4ccccc34)C(=O)O)C2=O)cc1)c1ccccc1F | 8 µg/mL (≈ 14.3 µM) |
| O=C(COc1ccc(/C=C2\SC(=S)N([C@@H](Cc3ccccc3)C(=O)O)C2=O)cc1)c1cccc(Br)c1 | 4 µg/mL (≈ 6.87 µM) |
| O=C(COc1ccc(/C=C2\SC(=S)N([C@@H](Cc3ccc(O)cc3)C(=O)O)C2=O)cc1)c1ccccc1 | 32 µg/mL (≈ 61.6 µM) |

System: Staphylococcus aureus
Test: Antibacterial activity against Staphylococcus aureus KCTC 4220 after 24 hrs by two-fold serial dilution method
Assay type: functional
Conditions: KCTC 4220, 24 h

| Compound | MIC |
| --- | --- |
| COc1ccccc1C(=O)COc1ccc(/C=C2\SC(=S)N([C@@H](Cc3ccc(O)cc3)C(=O)O)C2=O)cc1 | 32 µg/mL (≈ 58.2 µM) |
| O=C(COc1ccc(/C=C2\SC(=S)N([C@@H](Cc3c[nH]c4ccccc34)C(=O)O)C2=O)cc1)c1cccc(Br)c1 | 4 µg/mL (≈ 6.44 µM) |
| O=C(COc1ccc(/C=C2\SC(=S)N([C@@H](Cc3ccccc3)C(=O)O)C2=O)cc1)c1ccccc1 | 8 µg/mL (≈ 15.9 µM) |
| O=C(COc1ccc(/C=C2\SC(=S)N([C@@H](Cc3c[nH]c4ccccc34)C(=O)O)C2=O)cc1)c1ccccc1F | 8 µg/mL (≈ 14.3 µM) |
| O=C(COc1ccc(/C=C2\SC(=S)N([C@@H](Cc3ccccc3)C(=O)O)C2=O)cc1)c1cccc(Br)c1 | 4 µg/mL (≈ 6.87 µM) |
| O=C(COc1ccc(/C=C2\SC(=S)N([C@@H](Cc3ccc(O)cc3)C(=O)O)C2=O)cc1)c1ccccc1 | 32 µg/mL (≈ 61.6 µM) |

System: Staphylococcus aureus
Test: Antibacterial activity against quinolone-resistant Staphylococcus aureus CCARM 3505 after 24 hrs by two-fold serial dilution method
Assay type: functional
Conditions: CCARM 3505, 24 h

| Compound | MIC |
| --- | --- |
| COc1ccccc1C(=O)COc1ccc(/C=C2\SC(=S)N([C@@H](Cc3ccc(O)cc3)C(=O)O)C2=O)cc1 | 8 µg/mL (≈ 14.6 µM) |
| O=C(COc1ccc(/C=C2\SC(=S)N([C@@H](Cc3c[nH]c4ccccc34)C(=O)O)C2=O)cc1)c1cccc(Br)c1 | 4 µg/mL (≈ 6.44 µM) |
| O=C(COc1ccc(/C=C2\SC(=S)N([C@@H](Cc3ccccc3)C(=O)O)C2=O)cc1)c1ccccc1 | 8 µg/mL (≈ 15.9 µM) |
| O=C(COc1ccc(/C=C2\SC(=S)N([C@@H](Cc3c[nH]c4ccccc34)C(=O)O)C2=O)cc1)c1ccccc1F | 8 µg/mL (≈ 14.3 µM) |
| O=C(COc1ccc(/C=C2\SC(=S)N([C@@H](Cc3ccccc3)C(=O)O)C2=O)cc1)c1cccc(Br)c1 | 4 µg/mL (≈ 6.87 µM) |
| O=C(COc1ccc(/C=C2\SC(=S)N([C@@H](Cc3ccc(O)cc3)C(=O)O)C2=O)cc1)c1ccccc1 | 32 µg/mL (≈ 61.6 µM) |

System: Staphylococcus aureus
Test: Antibacterial activity against Staphylococcus aureus KCTC 209 after 24 hrs by two-fold serial dilution method
Assay type: functional
Conditions: KCTC 209, 24 h

| Compound | MIC |
| --- | --- |
| COc1ccccc1C(=O)COc1ccc(/C=C2\SC(=S)N([C@@H](Cc3ccc(O)cc3)C(=O)O)C2=O)cc1 | 8 µg/mL (≈ 14.6 µM) |
| O=C(COc1ccc(/C=C2\SC(=S)N([C@@H](Cc3c[nH]c4ccccc34)C(=O)O)C2=O)cc1)c1cccc(Br)c1 | 2 µg/mL (≈ 3.22 µM) |
| O=C(COc1ccc(/C=C2\SC(=S)N([C@@H](Cc3ccccc3)C(=O)O)C2=O)cc1)c1ccccc1 | 4 µg/mL (≈ 7.94 µM) |
| O=C(COc1ccc(/C=C2\SC(=S)N([C@@H](Cc3c[nH]c4ccccc34)C(=O)O)C2=O)cc1)c1ccccc1F | 8 µg/mL (≈ 14.3 µM) |
| O=C(COc1ccc(/C=C2\SC(=S)N([C@@H](Cc3ccccc3)C(=O)O)C2=O)cc1)c1cccc(Br)c1 | 4 µg/mL (≈ 6.87 µM) |
| O=C(COc1ccc(/C=C2\SC(=S)N([C@@H](Cc3ccc(O)cc3)C(=O)O)C2=O)cc1)c1ccccc1 | 32 µg/mL (≈ 61.6 µM) |

System: Escherichia coli
Test: Antibacterial activity against Escherichia coli 1356 after 24 hrs by two-fold serial dilution method
Assay type: functional
Conditions: Escherichia coli, 1356, 24 h

| Compound | MIC |
| --- | --- |
| COc1ccccc1C(=O)COc1ccc(/C=C2\SC(=S)N([C@@H](Cc3ccc(O)cc3)C(=O)O)C2=O)cc1 | > 64 µg/mL |
| O=C(COc1ccc(/C=C2\SC(=S)N([C@@H](Cc3c[nH]c4ccccc34)C(=O)O)C2=O)cc1)c1cccc(Br)c1 | > 64 µg/mL |
| O=C(COc1ccc(/C=C2\SC(=S)N([C@@H](Cc3ccccc3)C(=O)O)C2=O)cc1)c1ccccc1 | > 64 µg/mL |
| O=C(COc1ccc(/C=C2\SC(=S)N([C@@H](Cc3c[nH]c4ccccc34)C(=O)O)C2=O)cc1)c1ccccc1F | > 64 µg/mL |
| O=C(COc1ccc(/C=C2\SC(=S)N([C@@H](Cc3ccccc3)C(=O)O)C2=O)cc1)c1cccc(Br)c1 | > 64 µg/mL |
| O=C(COc1ccc(/C=C2\SC(=S)N([C@@H](Cc3ccc(O)cc3)C(=O)O)C2=O)cc1)c1ccccc1 | > 64 µg/mL |

System: Staphylococcus aureus
Test: Antibacterial activity against methicillin-resistant Staphylococcus aureus CCARM 3167 after 24 hrs by two-fold serial dilution method
Assay type: functional
Conditions: CCARM 3167, 24 h

| Compound | MIC |
| --- | --- |
| COc1ccccc1C(=O)COc1ccc(/C=C2\SC(=S)N([C@@H](Cc3ccc(O)cc3)C(=O)O)C2=O)cc1 | 8 µg/mL (≈ 14.6 µM) |
| O=C(COc1ccc(/C=C2\SC(=S)N([C@@H](Cc3c[nH]c4ccccc34)C(=O)O)C2=O)cc1)c1cccc(Br)c1 | 4 µg/mL (≈ 6.44 µM) |
| O=C(COc1ccc(/C=C2\SC(=S)N([C@@H](Cc3ccccc3)C(=O)O)C2=O)cc1)c1ccccc1 | 8 µg/mL (≈ 15.9 µM) |
| O=C(COc1ccc(/C=C2\SC(=S)N([C@@H](Cc3c[nH]c4ccccc34)C(=O)O)C2=O)cc1)c1ccccc1F | 8 µg/mL (≈ 14.3 µM) |
| O=C(COc1ccc(/C=C2\SC(=S)N([C@@H](Cc3ccccc3)C(=O)O)C2=O)cc1)c1cccc(Br)c1 | 4 µg/mL (≈ 6.87 µM) |
| O=C(COc1ccc(/C=C2\SC(=S)N([C@@H](Cc3ccc(O)cc3)C(=O)O)C2=O)cc1)c1ccccc1 | 32 µg/mL (≈ 61.6 µM) |
